# Literature values in US20150313904A1 (Teva Pharmaceuticals Ltd., priority 2014, published 2015).
# Test system: Crohn's disease patients
# Details: azathioprine-treated patients; Summers et al. 1979
smiles,measurement,value
Cn1cnc([N+](=O)[O-])c1Sc1ncnc2nc[nH]c12 [azathioprine],time of maximum decrease in the mean CDAI score,9 weeks
